Results from patent US6884882B1, “2′-deoxyuridine derivatives and hydrogels formed therewith” (Postech Foundation, priority 2004, dated 2005).
Entries after “also recorded” stand apart in the source; their conditions may differ.

Assays:
Assay type in all cases: physicochemical
[1] = Observation of inner structures of gels by Scanning Electron Microscopy (SEM); conditions: for gel structure in SEM image: gel prepared by the method of Example 2, lyophilized, platinum coated
Method: The aggregation mode of the gel formed with the 2′-deoxyurindine derivative was observed by Scanning Electron Microscopy (SEM). Gels were prepared using the 2′-deoxyuridine derivatives prepared in 1-4), 1-7), 1-9) and 1-10) by the method of Example 2. Each of the gels was heated to obtain a sol, and a small amount of the sol was converted to a gel cake, which was lyophilized under a vacuum at the liquid nitrogen temperature to remove the solvent, coated with platinum, and examined by SEM.

[2] = Gelation test (stable-to-inversion-of-the-container method) in water; conditions: for State: 2 wt % in water, dissolved by sonication and heating, cooled at room temperature for 20 minutes, vessel inverted; for Minimum gel concentration: minimum concentration at which a gel was formed in water; for gelation ability: in water, judged from Table 1
Method: In order to determine the extent of gelation of the 2′-deoxyuridine derivative of the present invention, the “stable-to-inversion-of-the-container” method was performed (see F. M. Menger and K. L Caran., J. Am. Chem. Soc., 122, 11679, 2000).
Each of 2′-deoxyuridine derivatives prepared in Example 1 was mixed with water in an amount corresponding to a concentration of 2 wt %, completely dissolved by sonication and heating, and then cooled at room temperature for 20 minutes to induce the formation of a gel. Then, the vessel containing the gel was inverted to see whether or not the content poured out.
Further, the minimum concentration at which a gel was formed (hereinafter, minimum gel concentration) was measured for each of the 2′-deoxyuridine derivatives.

[3] = Analysis of thermal stability of hydrogel by differential scanning calorimetry; conditions: DSC, 30 to 220° C., FIG. 3
Method: In order to examine the thermal stability of the 2′-deoxyuridine derivative of the present invention, 1 to 4 mg of the derivative prepared in 1-9) was shaped in the form of a pellet, and differential scanning calorimetry was performed therewith at a temperature ranging from 30 to 220° C.

Structure (SMILES)	gel structure in SEM image [1]	State [2]	Minimum gel concentration [2]	gelation ability [2]	gel structure in SEM image on lowering the concentration ([1]; concentration lowered from 2 to 0.25 wt %, FIG. 2)	melting point peak of the gel phase [3]	melting point peak of the solid phase [3]
O=c1[nH]c(=O)n([C@H]2C[C@H](O)[C@@H](CO)O2)cc1-c1cn(Cc2ccccc2)nn1 [1-4), 2′-deoxy-5-[1-(phenylmethyl)-1H-1,2,3-triazol-4-yl]-uridine]	lamellar structure	White opaque gel	0.3 wt %				
Cc1ccccc1Cn1cc(-c2cn([C@H]3C[C@H](O)[C@@H](CO)O3)c(=O)[nH]c2=O)nn1 [1-5), 2′-deoxy-5-[1-((o-methylphenyl)methyl)-1H-1,2,3-triazol-4-yl]-uridine]		Unstable white opaque gel	3 wt %				
Cc1cccc(Cn2cc(-c3cn([C@H]4C[C@H](O)[C@@H](CO)O4)c(=O)[nH]c3=O)nn2)c1 [1-6), 2′-deoxy-5-[1-((m-methylphenyl)methyl)-1H-1,2,3-triazol-4-yl]-uridine]		Unstable white opaque gel	1 wt %				
Cc1ccc(Cn2cc(-c3cn([C@H]4C[C@H](O)[C@@H](CO)O4)c(=O)[nH]c3=O)nn2)cc1 [1-7), 2′-deoxy-5-[1-((p-methylphenyl)methyl)-1H-1,2,3-triazol-4-yl]-uridine]	lamellar structure	White opaque gel	0.6 wt %	good gelation ability			
CCc1ccccc1Cn1cc(-c2cn([C@H]3C[C@H](O)[C@@H](CO)O3)c(=O)[nH]c2=O)nn1 [1-8), 2′-deoxy-5-[1-((o-ethylphenyl)methyl)-1H-1,2,3-triazol-4-yl]-uridine]		Unstable white opaque gel	2 wt %				
CCc1ccc(Cn2cc(-c3cn([C@H]4C[C@H](O)[C@@H](CO)O4)c(=O)[nH]c3=O)nn2)cc1 [1-9), 2′-deoxy-5-[1-((p-ethylphenyl)methyl)-1H-1,2,3-triazol-4-yl]-uridine]	fiber structure	White opaque gel	0.2 wt %	good gelation ability; also recorded: best gelation ability	looser fiber structure having a larger void volume	201 °C	200 °C
CCCCc1ccc(Cn2cc(-c3cn([C@H]4C[C@H](O)[C@@H](CO)O4)c(=O)[nH]c3=O)nn2)cc1 [1-10), 2′-deoxy-5-[1-((p-butylphenyl)methyl)-1H-1,2,3-triazol-4-yl]-uridine]	lamellar structure	White opaque gel	0.8 wt %	good gelation ability			
